Test results: ChEMBL document CHEMBL4507258 (2021)

Experiments:
[1] = target: Serine/threonine-protein kinase 35 (Homo sapiens) (UniProt Q8TDR2); settings: Compound concentration 1000.0 nM
[2] = target: Tyrosine-protein kinase JAK1 (Homo sapiens) (UniProt P23458); settings: Compound concentration 1000.0 nM
[3] = target: RAC-alpha serine/threonine-protein kinase (Homo sapiens) (UniProt P31749); settings: Compound concentration 1000.0 nM
[4] = target: Serine/threonine-protein kinase BRSK1 (Homo sapiens) (UniProt Q8TDC3); settings: Compound concentration 1000.0 nM
[5] = target: Ribosomal protein S6 kinase alpha-2 (Homo sapiens) (UniProt Q15349); settings: Compound concentration 1000.0 nM
[6] = target: Interleukin-1 receptor-associated kinase 3 (Homo sapiens) (UniProt Q9Y616); settings: Compound concentration 1000.0 nM
[7] = target: GABA-A receptor; anion channel (Rattus norvegicus) (UniProt O09028+P15431+P18506+P18508+P19969+P20236+P23574+P23576+P28471+P28473+P30191+P62813+P63079+P63138+Q91ZM7+Q9ES14); settings: Compound concentration 10.0 uM
[8] = target: Mitogen-activated protein kinase 15 (Homo sapiens) (UniProt Q8TD08); settings: Compound concentration 1000.0 nM
Sequence of Mitogen-activated protein kinase 15 (Homo sapiens) (Q8TD08 whole entry): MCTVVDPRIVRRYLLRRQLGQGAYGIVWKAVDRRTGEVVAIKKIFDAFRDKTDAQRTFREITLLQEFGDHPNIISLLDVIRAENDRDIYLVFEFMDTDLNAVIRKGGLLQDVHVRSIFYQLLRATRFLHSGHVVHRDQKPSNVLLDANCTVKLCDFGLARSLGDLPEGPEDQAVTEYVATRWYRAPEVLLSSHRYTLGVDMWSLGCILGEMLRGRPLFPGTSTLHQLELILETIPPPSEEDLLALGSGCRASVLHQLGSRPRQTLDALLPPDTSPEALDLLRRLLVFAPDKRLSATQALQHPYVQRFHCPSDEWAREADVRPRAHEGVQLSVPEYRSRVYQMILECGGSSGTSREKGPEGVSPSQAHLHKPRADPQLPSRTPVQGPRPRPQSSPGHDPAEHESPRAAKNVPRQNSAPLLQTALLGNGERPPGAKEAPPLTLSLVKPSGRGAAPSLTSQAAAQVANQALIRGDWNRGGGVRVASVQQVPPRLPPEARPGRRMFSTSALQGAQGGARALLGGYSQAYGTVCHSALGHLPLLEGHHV

[9] = target: MAP/microtubule affinity-regulating kinase 3 (Homo sapiens) (UniProt P27448); settings: Compound concentration 1000.0 nM
[10] = target: Serine/threonine-protein kinase ICK (Homo sapiens) (UniProt Q9UPZ9); settings: Compound concentration 1000.0 nM
[11] = target: Serine/threonine-protein kinase 3 (Homo sapiens) (UniProt Q13188); settings: Compound concentration 1000.0 nM
Sequence of Serine/threonine-protein kinase 3 (Homo sapiens) (Q13188 whole entry): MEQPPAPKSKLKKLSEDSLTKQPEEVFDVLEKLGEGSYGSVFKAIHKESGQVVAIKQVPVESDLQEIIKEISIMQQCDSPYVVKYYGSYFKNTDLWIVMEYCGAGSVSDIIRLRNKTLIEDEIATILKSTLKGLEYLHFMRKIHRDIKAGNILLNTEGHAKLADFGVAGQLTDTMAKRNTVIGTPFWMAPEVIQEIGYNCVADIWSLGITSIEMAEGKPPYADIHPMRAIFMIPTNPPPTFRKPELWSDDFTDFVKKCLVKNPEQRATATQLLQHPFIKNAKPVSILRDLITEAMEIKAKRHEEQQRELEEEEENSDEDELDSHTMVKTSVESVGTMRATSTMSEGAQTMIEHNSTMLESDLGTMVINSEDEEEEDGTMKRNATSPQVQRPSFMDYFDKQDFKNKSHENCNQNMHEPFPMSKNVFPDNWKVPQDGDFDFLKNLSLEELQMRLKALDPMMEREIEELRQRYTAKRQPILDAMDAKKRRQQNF

[12] = test system: Tyrosine-protein kinase ABL1 (Homo sapiens), P00519 [F317I]; settings: Compound concentration 1000.0 nM
[13] = target: Mitogen-activated protein kinase kinase kinase 6 (Homo sapiens) (UniProt O95382); settings: Compound concentration 1000.0 nM
[14] = target: Ephrin type-A receptor 6 (Homo sapiens) (UniProt Q9UF33); settings: Compound concentration 1000.0 nM
[15] = target: Serine/threonine-protein kinase Nek1 (Homo sapiens) (UniProt Q96PY6); settings: Compound concentration 1000.0 nM
[16] = target: Aurora kinase A (Homo sapiens) (UniProt O14965); settings: Compound concentration 1000.0 nM
[17] = target: Bone morphogenetic protein receptor type-1A (Homo sapiens) (UniProt P36894); settings: Compound concentration 1000.0 nM
[18] = target: MAP kinase-interacting serine/threonine-protein kinase 1 (Homo sapiens) (UniProt Q9BUB5); settings: Compound concentration 1000.0 nM
[19] = target: Cyclin-dependent kinase-like 3 (Homo sapiens) (UniProt Q8IVW4); settings: Compound concentration 1000.0 nM
[20] = target: MAP kinase-activated protein kinase 5 (Homo sapiens) (UniProt Q8IW41); settings: Compound concentration 1000.0 nM
[21] = test system: Phosphatidylinositol 4,5-bisphosphate 3-kinase catalytic subunit alpha isoform (Homo sapiens), P42336 [Q546K]; settings: Compound concentration 1000.0 nM
[22] = target: Mitogen-activated protein kinase kinase kinase 20 (Homo sapiens) (UniProt Q9NYL2); settings: Compound concentration 1000.0 nM
[23] = target: Mitogen-activated protein kinase kinase kinase 11 (Homo sapiens) (UniProt Q16584); settings: Compound concentration 1000.0 nM
[24] = target: Serine/threonine-protein kinase PLK3 (Homo sapiens) (UniProt Q9H4B4); settings: Compound concentration 1000.0 nM
Sequence of Serine/threonine-protein kinase PLK3 (Homo sapiens) (Q9H4B4 whole entry, looked up): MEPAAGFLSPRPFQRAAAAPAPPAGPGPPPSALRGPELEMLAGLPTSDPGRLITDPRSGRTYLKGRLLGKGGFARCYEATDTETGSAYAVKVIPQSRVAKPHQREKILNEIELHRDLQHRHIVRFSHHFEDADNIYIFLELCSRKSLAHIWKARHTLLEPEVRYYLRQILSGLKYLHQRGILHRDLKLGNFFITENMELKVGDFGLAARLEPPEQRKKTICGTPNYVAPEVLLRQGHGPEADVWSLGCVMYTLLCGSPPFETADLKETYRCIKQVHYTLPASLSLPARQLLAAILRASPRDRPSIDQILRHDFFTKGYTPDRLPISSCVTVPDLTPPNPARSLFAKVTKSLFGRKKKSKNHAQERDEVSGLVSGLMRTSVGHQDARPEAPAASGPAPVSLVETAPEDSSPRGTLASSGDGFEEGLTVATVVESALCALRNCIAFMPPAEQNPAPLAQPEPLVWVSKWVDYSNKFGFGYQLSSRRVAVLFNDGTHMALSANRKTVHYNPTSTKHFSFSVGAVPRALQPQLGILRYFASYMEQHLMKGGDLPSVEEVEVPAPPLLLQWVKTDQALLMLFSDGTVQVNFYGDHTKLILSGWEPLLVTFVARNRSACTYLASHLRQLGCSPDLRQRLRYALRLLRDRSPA

[25] = target: Serine/threonine-protein kinase PAK 4 (Homo sapiens) (UniProt O96013); settings: Compound concentration 1000.0 nM
[26] = target: Tyrosine-protein kinase ABL1 (Homo sapiens) (UniProt P00519); settings: Compound concentration 1000.0 nM
[27] = target: Ribosomal protein S6 kinase alpha-3 (Homo sapiens) (UniProt P51812); settings: Compound concentration 1000.0 nM
[28] = target: Mast/stem cell growth factor receptor Kit (Homo sapiens) (UniProt P10721); settings: Compound concentration 1000.0 nM
[29] = target: Protein kinase C delta type (Homo sapiens) (UniProt Q05655); settings: Compound concentration 1000.0 nM
[30] = test system: Serine/threonine-protein kinase B-raf (Homo sapiens), P15056 [V600E]; settings: Compound concentration 1000.0 nM
Sequence of Serine/threonine-protein kinase B-raf (Homo sapiens), P15056 [V600E] (P15056 whole entry V600E): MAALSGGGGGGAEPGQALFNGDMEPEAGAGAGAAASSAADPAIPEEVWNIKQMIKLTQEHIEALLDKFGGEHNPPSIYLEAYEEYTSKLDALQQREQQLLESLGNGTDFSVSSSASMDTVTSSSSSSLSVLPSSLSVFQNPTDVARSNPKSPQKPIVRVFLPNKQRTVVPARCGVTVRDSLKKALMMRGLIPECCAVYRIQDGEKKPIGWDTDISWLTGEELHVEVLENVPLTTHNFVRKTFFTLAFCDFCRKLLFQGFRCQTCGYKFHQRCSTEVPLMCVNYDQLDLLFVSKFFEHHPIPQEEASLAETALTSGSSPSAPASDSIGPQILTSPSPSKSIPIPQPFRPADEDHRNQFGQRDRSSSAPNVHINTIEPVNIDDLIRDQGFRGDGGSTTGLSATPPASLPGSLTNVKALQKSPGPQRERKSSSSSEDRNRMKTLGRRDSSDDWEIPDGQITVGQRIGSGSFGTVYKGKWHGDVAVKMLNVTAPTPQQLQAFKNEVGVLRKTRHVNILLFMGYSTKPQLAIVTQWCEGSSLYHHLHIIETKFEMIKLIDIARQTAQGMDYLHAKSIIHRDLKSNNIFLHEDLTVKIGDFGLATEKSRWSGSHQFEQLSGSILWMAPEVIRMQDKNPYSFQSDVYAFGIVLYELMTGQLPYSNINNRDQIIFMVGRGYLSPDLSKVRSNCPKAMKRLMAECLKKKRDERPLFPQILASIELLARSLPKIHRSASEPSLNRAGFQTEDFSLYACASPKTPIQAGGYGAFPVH

[31] = target: Bone morphogenetic protein receptor type-2 (Homo sapiens) (UniProt Q13873); settings: Compound concentration 1000.0 nM
Sequence of Bone morphogenetic protein receptor type-2 (Homo sapiens) (Q13873 whole entry): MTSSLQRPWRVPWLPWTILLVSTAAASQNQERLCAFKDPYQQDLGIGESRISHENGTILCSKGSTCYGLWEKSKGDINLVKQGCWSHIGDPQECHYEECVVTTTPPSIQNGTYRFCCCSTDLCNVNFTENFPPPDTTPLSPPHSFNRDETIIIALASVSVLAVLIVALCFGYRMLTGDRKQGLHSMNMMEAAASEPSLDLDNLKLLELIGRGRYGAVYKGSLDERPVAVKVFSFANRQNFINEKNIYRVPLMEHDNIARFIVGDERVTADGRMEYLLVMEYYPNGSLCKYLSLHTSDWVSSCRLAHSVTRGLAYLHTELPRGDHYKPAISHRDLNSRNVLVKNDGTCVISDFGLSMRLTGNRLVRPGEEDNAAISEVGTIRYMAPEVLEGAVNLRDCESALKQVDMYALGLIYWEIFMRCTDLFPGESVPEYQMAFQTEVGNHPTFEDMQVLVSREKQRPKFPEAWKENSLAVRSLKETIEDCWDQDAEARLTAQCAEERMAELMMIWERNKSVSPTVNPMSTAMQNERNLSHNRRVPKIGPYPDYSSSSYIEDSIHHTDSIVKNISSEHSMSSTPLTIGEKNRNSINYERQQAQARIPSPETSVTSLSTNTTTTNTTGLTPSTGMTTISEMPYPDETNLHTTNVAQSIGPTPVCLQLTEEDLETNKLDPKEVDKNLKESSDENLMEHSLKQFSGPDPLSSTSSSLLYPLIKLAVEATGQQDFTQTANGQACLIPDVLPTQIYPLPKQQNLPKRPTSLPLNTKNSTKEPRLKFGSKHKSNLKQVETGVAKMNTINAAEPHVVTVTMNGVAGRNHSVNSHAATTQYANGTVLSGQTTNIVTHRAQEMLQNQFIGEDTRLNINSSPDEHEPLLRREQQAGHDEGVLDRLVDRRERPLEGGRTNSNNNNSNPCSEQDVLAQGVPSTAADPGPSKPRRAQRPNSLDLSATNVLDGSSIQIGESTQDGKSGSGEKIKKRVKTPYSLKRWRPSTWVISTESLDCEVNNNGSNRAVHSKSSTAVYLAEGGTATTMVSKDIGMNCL

[32] = target: Maternal embryonic leucine zipper kinase (Homo sapiens) (UniProt Q14680); settings: Compound concentration 1000.0 nM
[33] = target: Cyclin-dependent kinase 9 (Homo sapiens) (UniProt P50750); settings: Compound concentration 1000.0 nM
[34] = target: Sodium-dependent serotonin transporter (Homo sapiens) (UniProt P31645); settings: Compound concentration 10.0 uM
[35] = target: Phosphatidylinositol 4,5-bisphosphate 3-kinase catalytic subunit alpha isoform (Homo sapiens) (UniProt P42336); settings: Compound concentration 1000.0 nM
[36] = test system: Epidermal growth factor receptor (Homo sapiens), P00533 [T790M]; settings: Compound concentration 1000.0 nM
[37] = target: Mitogen-activated protein kinase 1 (Homo sapiens) (UniProt P28482); settings: Compound concentration 1000.0 nM
Sequence of Mitogen-activated protein kinase 1 (Homo sapiens) (P28482 whole entry): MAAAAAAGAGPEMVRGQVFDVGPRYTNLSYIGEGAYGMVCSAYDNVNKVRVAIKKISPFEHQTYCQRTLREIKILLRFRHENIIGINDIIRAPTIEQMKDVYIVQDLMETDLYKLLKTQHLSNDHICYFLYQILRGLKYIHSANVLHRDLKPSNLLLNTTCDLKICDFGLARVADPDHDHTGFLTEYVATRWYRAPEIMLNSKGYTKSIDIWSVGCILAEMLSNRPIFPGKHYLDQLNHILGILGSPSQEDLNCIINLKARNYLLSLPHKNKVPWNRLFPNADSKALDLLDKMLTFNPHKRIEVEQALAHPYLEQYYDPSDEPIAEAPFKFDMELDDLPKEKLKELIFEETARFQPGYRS

[38] = target: Protein-tyrosine kinase 2-beta (Homo sapiens) (UniProt Q14289); settings: Compound concentration 1000.0 nM
[39] = target: Ephrin type-A receptor 7 (Homo sapiens) (UniProt Q15375); settings: Compound concentration 1000.0 nM
[40] = target: Death-associated protein kinase 3 (Homo sapiens, UniProt O43293); settings: Compound concentration 1000.0 nM
[41] = target: Cyclin-dependent kinase 18 (Homo sapiens) (UniProt Q07002); settings: Compound concentration 1000.0 nM
[42] = test system: Receptor-type tyrosine-protein kinase FLT3 (Homo sapiens), P36888 [K663Q]; settings: Compound concentration 1000.0 nM
[43] = target: Tyrosine-protein kinase Fes/Fps (Homo sapiens) (UniProt P07332); settings: Compound concentration 1000.0 nM
[44] = target: 5-hydroxytryptamine receptor 5A (Homo sapiens) (UniProt P47898); settings: Compound concentration 10.0 uM

Sequence of Tyrosine-protein kinase JAK1 (Homo sapiens) (P23458 whole entry): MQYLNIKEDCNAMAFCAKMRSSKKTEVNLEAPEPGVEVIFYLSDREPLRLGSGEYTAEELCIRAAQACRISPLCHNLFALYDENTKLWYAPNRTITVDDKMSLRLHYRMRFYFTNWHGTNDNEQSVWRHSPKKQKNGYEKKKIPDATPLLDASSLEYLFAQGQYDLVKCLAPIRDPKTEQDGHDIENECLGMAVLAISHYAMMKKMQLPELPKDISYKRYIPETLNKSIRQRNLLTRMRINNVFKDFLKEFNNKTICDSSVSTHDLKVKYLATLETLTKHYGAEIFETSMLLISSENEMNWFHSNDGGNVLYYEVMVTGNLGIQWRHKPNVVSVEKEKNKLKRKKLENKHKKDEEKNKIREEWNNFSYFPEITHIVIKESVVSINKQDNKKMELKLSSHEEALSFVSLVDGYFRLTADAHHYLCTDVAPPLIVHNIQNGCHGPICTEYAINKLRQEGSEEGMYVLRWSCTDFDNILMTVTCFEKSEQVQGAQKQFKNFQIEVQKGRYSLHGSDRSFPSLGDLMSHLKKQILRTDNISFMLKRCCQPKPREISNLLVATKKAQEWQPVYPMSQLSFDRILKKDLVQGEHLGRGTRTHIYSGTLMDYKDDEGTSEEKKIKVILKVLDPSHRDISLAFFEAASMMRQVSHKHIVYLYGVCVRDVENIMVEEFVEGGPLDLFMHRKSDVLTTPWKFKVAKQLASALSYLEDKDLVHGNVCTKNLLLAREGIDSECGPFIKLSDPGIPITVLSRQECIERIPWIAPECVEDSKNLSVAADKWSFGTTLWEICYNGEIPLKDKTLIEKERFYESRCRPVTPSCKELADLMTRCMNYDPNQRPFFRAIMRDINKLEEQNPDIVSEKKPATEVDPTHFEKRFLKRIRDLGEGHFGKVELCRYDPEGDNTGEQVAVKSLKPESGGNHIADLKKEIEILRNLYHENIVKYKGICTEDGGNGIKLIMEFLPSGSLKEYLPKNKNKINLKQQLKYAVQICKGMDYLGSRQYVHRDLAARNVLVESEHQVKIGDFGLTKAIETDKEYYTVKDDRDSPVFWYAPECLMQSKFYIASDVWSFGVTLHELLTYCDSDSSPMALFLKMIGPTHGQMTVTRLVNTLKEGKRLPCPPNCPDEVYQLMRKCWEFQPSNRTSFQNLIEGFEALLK

CCCCN(CCCC)C(=O)CN1C[C@@H](c2cc(OC)c3c(c2)OCO3)[C@H](C(=O)O)[C@H]1CC(C)(C)CCC [A-545]
inactive: residual activity [1] 100% | residual activity [2] 100% | residual activity [3] 85.7% | residual activity [4] 88.9% | residual activity [5] 90.2% | residual activity [6] 85% | inhibition [7] 8.52% | residual activity [8] 100% | residual activity [9] 93.7% | residual activity [10] 83.5% | residual activity [11] 100% | residual activity [12] 94.3% | residual activity [13] 100% | residual activity [14] 100% | residual activity [15] 100% | residual activity [16] 90.2% | residual activity [17] 100% | residual activity [18] 100% | residual activity [19] 83.6% | residual activity [20] 100% | residual activity [21] 100% | residual activity [22] 91.3% | residual activity [23] 100% | residual activity [24] 93.5% | residual activity [25] 90.2% | residual activity [26] 100% | residual activity [27] 85.4% | residual activity [28] 100% | residual activity [29] 98.2% | residual activity [30] 100% | residual activity [31] 86.7% | residual activity [32] 100% | residual activity [33] 100% | inhibition [34] -7.99% | residual activity [35] 95.9% | residual activity [36] 86.7% | residual activity [37] 82.1% | residual activity [38] 93.4% | residual activity [39] 100% | residual activity [40] 100% | residual activity [41] 92.4% | residual activity [42] 80.1% | residual activity [43] 100% | inhibition [44] 43.5%

CCCCN(CCCC)C(=O)CN1C[C@H](c2cc(OC)c3c(c2)OCO3)[C@@H](C(=O)O)[C@@H]1CC(C)(C)CCC [ABT-546]
inactive: residual activity [1] 100% | residual activity [2] 84.7% | residual activity [3] 100% | residual activity [4] 100% | residual activity [5] 100% | residual activity [6] 100% | inhibition [7] 19.7% | residual activity [8] 100% | residual activity [9] 98.7% | residual activity [10] 80.2% | residual activity [11] 96.1% | residual activity [12] 72.5% | residual activity [13] 81.7% | residual activity [14] 100% | residual activity [15] 100% | residual activity [16] 90.3% | residual activity [17] 86.9% | residual activity [18] 93.3% | residual activity [19] 100% | residual activity [20] 67.9% | residual activity [21] 67.3% | residual activity [22] 85.2% | residual activity [23] 100% | residual activity [24] 90.6% | residual activity [25] 100% | residual activity [26] 79.8% | residual activity [27] 54.9% | residual activity [28] 100% | residual activity [29] 100% | residual activity [30] 89.1% | residual activity [31] 80% | residual activity [32] 100% | residual activity [33] 100% | inhibition [34] 15.3% | residual activity [35] 89.7% | residual activity [36] 79% | residual activity [37] 100% | residual activity [38] 100% | residual activity [39] 100% | residual activity [40] 100% | residual activity [41] 100% | residual activity [42] 100% | residual activity [43] 100% | inhibition [44] -5.07%
